Where a SMILES comes first, the peptide text is derived from it. Bridges are numbered along the chain shown (N, C = ends).
How the values were obtained:
H1N1/Tokyo2619 = format: cell-based, influenza A virus
H5N1/Vac-3 = format: cell-based, influenza A virus
[1] = test system: A/whooper swan/Hokkaido/1/08 (H5N1); design: species or system BALB/c mice; settings: mouse, in vivo
[2] = test system: A/Narita/1/09 (H1N1/Narita); assay: microbe, parasite or virus in culture; format: cell-based; settings: Influenza A virus, H1N1, MDCK; 48–72 h; read-out: EC50, plaque reduction, H1N1/Narita
[3] = test system: A/duck/Hokkaido/Vac-3/07 (H5N1/Vac-3); assay: microbe, parasite or virus in culture; format: cell-based, influenza A virus; settings: Influenza A virus, H5N1, MDCK; 48–72 h; read-out: EC50, plaque reduction, H5N1/Vac-3
A/Adachi/2/57 (H2N2) = assay: microbe, parasite or virus in culture; format: cell-based; settings: Influenza A virus, H2N2, MDCK; 48–72 h; read-out: EC50, plaque reduction, H2N2/Adachi
[4] = test system: A/Tokyo/2619/09 (H1N1/Tokyo2619); assay: microbe, parasite or virus in culture; format: cell-based; settings: Influenza A virus, H1N1, MDCK; 48–72 h; read-out: EC50, plaque reduction, H1N1/Tokyo2619
[5] = test system: A/whooper swan/Hokkaido/1/08 (H5N1/Hokkaido; clade 2.3.2.1); assay: microbe, parasite or virus in culture; format: cell-based; settings: Influenza A virus, H5N1, MDCK; 48–72 h; read-out: EC50, plaque reduction, H5N1/Hokkaido (clade 2.3.2.1)
[6] = test system: A/Puerto Rico/8/34 (H1N1/PR8); assay: microbe, parasite or virus in culture; format: cell-based; settings: Influenza A virus, MDCK; 48–72 h; read-out: EC50, plaque reduction, H1N1/PR8
[7] = test system: A/whooper swan/Mongolia/3/05 (H5N1/Mongolia; clade 2.2); assay: microbe, parasite or virus in culture; format: cell-based; settings: Influenza A virus, H5N1, MDCK; 48–72 h; read-out: EC50, plaque reduction, H5N1/Mongolia (clade 2.2)

SMILES | H1N1/Tokyo2619 virus-mediated RBC membrane fusion (H1N1/Tokyo2619) | H5N1/Vac-3 virus-mediated RBC membrane fusion (H5N1/Vac-3) | Survival outcome, delayed administration [1] | EC50 [2] [nM] | EC50 [3] [nM] | EC50 (A/Adachi/2/57 (H2N2)) [nM] | EC50 [4] [nM] | EC50 [5] [nM] | EC50 [6] [nM] | EC50 [7] [nM]
CC[C@H](C)[C@@H]1NC(=O)[C@H](C)NC(=O)[C@H](Cc2c[nH]c3ccccc23)NC(=O)[C@H](CCC(=O)O)NC(=O)[C@H](CC(C)C)NC(=O)[C@@H]2CCCN2C(=O)[C@H](Cc2ccccc2)NC(=O)[C@H](CCCCN)NC(=O)[C@H](Cc2c[nH]c3ccccc23)NC(=O)[C@H](CC(N)=O)NC(=O)[C@H](C(C)C)NC(=O)CSC[C@@H](C(=O)NCC(N)=O)NC(=O)[C@H](Cc2ccc(O)cc2)NC(=O)[C@H](CCCNC(=N)N)NC1=O [iHA-12sf, reference compound] ({CH2CO}-VNWKFPLEWAIRYCG-NH2; thioether N-14) | did not reduce RBC membrane fusion | did not reduce RBC membrane fusion | – | – | – | – | – | – | – | –
CC(=O)N[C@H]1[C@H]([C@H](O)[C@H](O)CO)OC(C(=O)O)=C[C@@H]1N=C(N)N [zanamivir] | – | – | all mice in the zanamivir-treated group died | > 1000 | 42 | 60 | > 1000 | < 10 | 115 | < 10
